Laboratory results published in patent publication US20260216107A1, “INTERLEUKIN-6 (IL-6)/SIGNAL TRANSDUCER AND ACTIVATOR OF TRANSCRIPTION 3 (STAT3) PATHWAY INHIBITORS FOR USE IN THE TREATMENT OF GRANULOMATOUS DISEASES” (UCL BUSINESS LTD, priority 2023, published 2026).
Entries after “also recorded” stand apart in the source; their conditions may differ.

Assays:
THP1 monocytes = experiment: PR3-stimulated giant cell formation in THP1 monocytes matured to macrophages; format: cell-based; settings: PMA 24 hours, PR3 10 mcg/ml 72 hours, with or without Stattic; FIG. 19
Experimental: An in vitro model of granulomatous disease was created using THP1 monocytes. The THP1 monocytes were matured to macrophages by the addition of PMA for 24 hours and then stimulated with PR3 at 10 mcg/ml for 72 hours in the presence or absence of Stattic, a STAT3 inhibitor. MGC formation was assessed as before by calculating the fusion index.

IL-6 = IL-6 levels in zebrafish model of granulomatous disease; format: in vivo; settings: PR3 zebrafish model, niclosamide via fish tank water
Excerpt: An in vivo model of granulomatous disease in zebrafish was developed by administering PR3 to the fish.

macrophage aggregation = experiment: PR3-induced macrophage aggregation / MGC formation in zebrafish embryos, niclosamide added to fish water; format: in vivo; settings: for Median aggregate volume: PR3-injected zebrafish, PR3 alone 106969 (41031-465184)
Experimental: The injection of intact or HI PR3 into the zebrafish was repeated in the presence or absence of the IL-6/STAT3 inhibitor niclosamide, which was added to the fish water at different concentrations (0.01-0.3 μmol/l) (FIG. 11B, C). […] Median aggregate volume PR3 vs PR3 and niclosamide 0.3, 0.15. 0.05. 0.01 μmol/ml respectively 106969 (41031-465184), 42730 (25638-324957), 44501 (26861-90354), 63043 (27395-205060), 117473 (35128-245781) (p<0.05 PR3 vs 0.3 and 0.05, p<0.001 PR3 vs 0.15 μmol/l; one way ANOVA).
In Vivo Effect of PR3 on MGC Formation and the Ability of Niclosamide to Reduce MGC Formation In order to understand granuloma formation in vivo, a zebrafish embryo model was developed. Transgenic macrophage reporter zebrafish {Tg (MPEg: cherry)} embryos at 24 hpf, were injected into the yolk sac with human PR3 or Albumin at 1 or 5 […], either untreated or following heat inactivation. Embryos were imaged at 120 hpf with lightsheet microscopy showing volumes of fused macrophages according to the colour scale (see FIG. 8A-D). […] Median (IQR) aggregate volumes were HI albumin 5 pg/ml 22713 μm^3 (19918-31486) and HI PR3 5 pg/ml 31571 μm^3 (23137-49647) (p<0.001, one way ANOVA). In subsequent experiments, the injection of intact or HI PR3 was repeated in the presence or absence of the IL-6-STAT3 inhibitor niclosamide, added to the fish water at different concentrations (0.01-0.3 μmol/l) (see FIG. 8F-G). […] Median aggregate volume PR3 vs PR3 and niclosamide 0.3, 0.15. 0.05. 0.01 μmol/ml respectively 106969 (41031-465184), 42730 (25638-324957), 44501 (26861-90354), 63043 (27395-205060), 117473 (35128-245781) (p<0.05 PR3 vs 0.3 and 0.05, p<0.001 PR3 vs 0.15 μmol/l; one way ANOVA).
In Vivo Danio rerio Model All animal experimental protocols were approved by University College London's Animal Welfare and Ethical Review Body (AWERB) and licensed by the UK Home Office. All experiments were performed in accordance with relevant guidelines and regulations as described in UK Home Office Project License (PPL 70/8365) awarded to Dr Paul Frankel. The Transgeneic Tg (mpeg: GFP) line was kindly provided by Professor Maggie Dallman (Imperial College London, UK). Zebrafish were maintained in mixed-sex populations at 28° C. with a 14 h: 10 h light: dark cycle from 9 am-[…] and within internationally agreed environmental parameters regarding water quality and composition. Following dechorionation and anaesthesia with tricaine (0.2 mg/ml), embryos were microinjected into the yolk sac with 5 pg/mL of PR3, heat inactivated PR3, or albumin and incubated in 10 cm Petri dishes at 28.5° C. After 5 days, living embryos were anaesthetised with tricaine (0.2 mg/ml) and embedded in 2% agarose for 3-dimensional confocal microscopy using a Ziess camera at ×200 magnification to determine macrophage fusion. Z-stacks were analysed using Imaris software version 9.2. Images were 3D rendered and aggregate volumes measured by automated thresholds.

GPA patients' monocytes = experiment: PR3-stimulated MGC formation (fusion index) in GPA patients' monocytes; format: cell-based, human; settings: cultured monocytes; Tocilizumab 10 μg/mL

## O=[N+]([O-])c1ccc2c(c1)S(=O)(=O)C=C2 [Stattic]
THP1 monocytes
  giant cell formation index: significant decrease; also recorded: lower giant cell formation index

## O=C(Nc1ccc([N+](=O)[O-])cc1Cl)c1cc(Cl)ccc1O [niclosamide, Niclosamide]
IL-6
  IL-6 levels: reduce IL-6 levels
Macrophage aggregation; FIG. 8F, G, 0.3, 0.15 and 0.05 μmol/ml niclosamide compared to PR3 alone
  aggregate volume and number: reduction in aggregate volume and number
Macrophage aggregation; niclosamide 0.01 μmol/l in fish water
  Median aggregate volume: 117473 (35128-245781) μm^3
Macrophage aggregation; niclosamide 0.05 μmol/l in fish water, p<0.05
  Median aggregate volume: 63043 (27395-205060) μm^3
Macrophage aggregation; niclosamide 0.15 μmol/l in fish water, p<0.001
  Median aggregate volume: 44501 (26861-90354) μm^3
Macrophage aggregation; niclosamide 0.3 μmol/l in fish water, p<0.05
  Median aggregate volume: 42730 (25638-324957) μm^3
Macrophage aggregation; PR3 zebrafish model, niclosamide via fish tank water
  granuloma formation: significantly inhibit granuloma formation
Macrophage aggregation; after injection of enzymatically active or inactive PR3 into the yolk sac
  macrophage aggregation: significantly attenuated
Macrophage aggregation; zebrafish injected with intact or HI PR3, niclosamide 0.01-0.3 μmol/l in fish water, vs PR3 alone
  MGC formation: significantly less MGC formation
Macrophage aggregation; zebrafish injected with intact or HI PR3, niclosamide in fish water
  concentration at which the reduction of MGC formation was maximal: 0.15 µmol/mL

## Tocilizumab: humanised IgG1 monoclonal antibody against the human interleukin-6 (IL-6) receptor (RoActerma, Roche, UK)
GPA patients' monocytes
  granuloma formation: reduced granuloma formation
